Test results: patent US7968587B2, “Tetrahydrocyclopenta[b]indole compounds as androgen receptor modulators” (priority 2006, dated 2011)

System: castrated (GDX) male Wistar rats
Test: In vivo model of efficacy and selectivity (castrated rat; LA, SV wet weight, PALP activity)
Conditions: po, two weeks; for LA weight % Efficacy versus control (GDX) (ANOVA, p < 0.05): levator ani wet weight normalized to body weight; for PALP % Efficacy versus control (GDX) (ANOVA, p < 0.05): periosteal alkaline phosphatase activity, tibia; for SV weight % Efficacy verses control (sham) (ANOVA, p < 0.05): seminal vesicle wet weight normalized to body weight
Description: Male Wistar rats (12 weeks old) are castrated (gonadectomized or “GDX”) according to approved procedures (Charles River Labs) and allowed to waste for eight - 10 weeks. Age-matched sham-operated mice are also prepared. (Sham-operated mice are animals that have been exposed to the same surgical procedures as castrated animals except their testes are not removed.) Animals are housed in a temperature-controlled room (24° C.) with a reversed 12 hour light/dark cycle (dark 10:00/22:00) and water and food are available ad libitum.
Test compounds are administered to the animals using conventional vehicles. For example, 1% sodium carboxymethylcellulose (CMC)+0.25% Tween 80 in sterile H2O can be used for oral administration and 6% ethyl-alcohol (EtOH)+94% cyclodexitrane (CDX) can be used for subcutaneous injections. Sham operated rats treated with vehicle alone are used as a treatment positive controls whereas castrated rats treated only with vehicle are used as treatment negative control.
Test animals are dosed over a two week timeframe, orally or subcutaneously, with, for example, 0.3, 1, 3, 10 or 30 mg/kg/day of a compound of the present invention. After the two-week treatment, as an indicator of activity, the wet weight of the Levator Ani (LA) muscle in the test group is determined and compared to the wet weight of the Levator Ani from the castrated, vehicle-only control group. The wet weights of the muscle obtained in both the test group and the vehicle-only group are normalized relative to total body weight. As an indicator of tissue selective activity, the wet weight of the seminal vesicle (SV) from test animals is similarly compared to the wet weight of the seminal vesicles from the sham, vehicle-only group. Again, the wet weights of the vesicles obtained from both the test group and the vehicle-only group are normalized relative to total body weight.
In addition to the Levator Ani wet weight, the left tibia of rats are isolated during necropsy and after uncapping of the epiphysis, the soft tissue surrounding the bone is carefully removed. This sample is then placed in a solution containing 0.2% collagenase in Tris Buffer (pH 7.5). The resulting enzymatic excision of the outer periosteal layer is subjected immediately to an assay to determine alkaline phosphatase activity, an indicator of osteoblast/bone anabolic activity. Briefly, 30 μL of sample is placed in an epitube containing 200 μL of para-nitrophenyl phosphate (PNPP) substrate buffer (Pierce Cat # 37621). Purified alkaline phosphatase (Sigma Cat. # P4252) is used to make a standard curve, and the samples are read in a plate reader at Abs405 to determine periosteal alkaline phosphatase (PALP) activity. The results obtained from both the test group and the vehicle only group may be normalized relative to total body weight.
Percent Efficacy (% Eff.) values may be determined as follows: % Eff.=((Wet weight of LA or SV or PALP activity in test animal/test animal total body weight)/(Wet weight of LA or SV or PALP activity in control animal/control animal total body weight))×100.

Compound: CN(C)S(=O)(=O)N[C@@H]1Cc2c(n(Cc3cccc(F)n3)c3ccc(C#N)cc23)C1 [Example 74, (R)-N′-[7-Cyano-4-(6-fluoro-pyridin-2-ylmethyl)-1,2,3,4-tetrahydro-cyclopenta[b]indol-2-yl]-N,N-dimethylsulfamide]
- LA weight % Efficacy versus control (GDX) (ANOVA, p < 0.05) (3 mg/Kg/d): 134%
- PALP % Efficacy versus control (GDX) (ANOVA, p < 0.05) (3 mg/Kg/d): 95%
- SV weight % Efficacy verses control (sham) (ANOVA, p < 0.05) (3 mg/Kg/d): 6%
- LA weight % Efficacy versus control (GDX) (ANOVA, p < 0.05) (10 mg/Kg/d): 195%
- PALP % Efficacy versus control (GDX) (ANOVA, p < 0.05) (10 mg/Kg/d): 116%
- SV weight % Efficacy verses control (sham) (ANOVA, p < 0.05) (10 mg/Kg/d): 8%
- LA weight % Efficacy versus control (GDX) (ANOVA, p < 0.05) (30 mg/Kg/d): 186%
- PALP % Efficacy versus control (GDX) (ANOVA, p < 0.05) (30 mg/Kg/d): 107%
- SV weight % Efficacy verses control (sham) (ANOVA, p < 0.05) (30 mg/Kg/d): 14%
